The structures appear in SMILES notation.

Experimental findings from ChEMBL document CHEMBL5303573, “Mapping human microbiome drug metabolism by gut bacteria and their genes” (Nature, 2019) are described below.

The nature of series [1]: The drug is tested on the gut metagenome community of MV07 with ENA study accession number: PRJEB31790 and ENA sample accession number: SAMEA5537488 for biotransformation. The drug concentrations were measured over 9 timepoints collected between 0 and 24 hours of incubation by liquid-chromatography-coupled mass spectrometry (LC–MS). The class given is ADME. On the set-up: dose 2 uM, timepoint 0, 1, 2, 4, 6, 8, 12, 18, 24 hours. To be noted: 2 µM.

Series [2] can be described thus: The drug is tested on the gut metagenome community of MV24 with ENA study accession number: PRJEB31790 and ENA sample accession number: SAMEA5537505 for biotransformation. The drug concentrations were measured over 9 timepoints collected between 0 and 24 hours of incubation by liquid-chromatography-coupled mass spectrometry (LC–MS). The class given is ADME. On the set-up: dose 2 uM, timepoint 0, 1, 2, 4, 6, 8, 12, 18, 24 hours. To be noted: 2 µM.

For series [3] the following is noted: bacteroides thetaiotaomicron, 12 h, 2 µM.
Description: The drug is tested on Bacteroides thetaiotaomicron strain: VPI-5482 for biotransformation. The drug concentrations were measured before and after a 12-h incubation by liquid-chromatography-coupled mass spectrometry (LC–MS)
Series [4] is described as follows: The drug is tested on the gut metagenome community of MV17 with ENA study accession number: PRJEB31790 and ENA sample accession number: SAMEA5537498 for biotransformation. The drug concentrations were measured over 9 timepoints collected between 0 and 24 hours of incubation by liquid-chromatography-coupled mass spectrometry (LC–MS). The class given is ADME. On the set-up: dose 2 uM, timepoint 0, 1, 2, 4, 6, 8, 12, 18, 24 hours. The following applies: 2 µM.

A short description of series [5]: The drug is tested on the gut metagenome community of MV23 with ENA study accession number: PRJEB31790 and ENA sample accession number: SAMEA5537504 for biotransformation. The drug concentrations were measured over 9 timepoints collected between 0 and 24 hours of incubation by liquid-chromatography-coupled mass spectrometry (LC–MS). In kind it is ADME. On the set-up: dose 2 uM, timepoint 0, 1, 2, 4, 6, 8, 12, 18, 24 hours. The following applies: 2 µM.

Series [6] in a line: The drug is tested on the gut metagenome community of MV03 with ENA study accession number: PRJEB31790 and ENA sample accession number: SAMEA5537484 for biotransformation. The drug concentrations were measured over 9 timepoints collected between 0 and 24 hours of incubation by liquid-chromatography-coupled mass spectrometry (LC–MS). The following applies: 2 µM. On the set-up: dose 2 uM, timepoint 0, 1, 2, 4, 6, 8, 12, 18, 24 hours. In kind it is ADME.

Series [7] in a line: The drug is tested on the gut metagenome community of MV12 with ENA study accession number: PRJEB31790 and ENA sample accession number: SAMEA5537493 for biotransformation. The drug concentrations were measured over 9 timepoints collected between 0 and 24 hours of incubation by liquid-chromatography-coupled mass spectrometry (LC–MS). On the set-up: dose 2 uM, timepoint 0, 1, 2, 4, 6, 8, 12, 18, 24 hours. In kind it is ADME. The following applies: 2 µM.

Series [8] in a line: The drug is tested on the gut metagenome community of MV15 with ENA study accession number: PRJEB31790 and ENA sample accession number: SAMEA5537496 for biotransformation. The drug concentrations were measured over 9 timepoints collected between 0 and 24 hours of incubation by liquid-chromatography-coupled mass spectrometry (LC–MS). In kind it is ADME. On the set-up: dose 2 uM, timepoint 0, 1, 2, 4, 6, 8, 12, 18, 24 hours. The following applies: 2 µM.

The conditions of series [9]: victivallis vadensis, 12 h, 2 µM.
Description: The drug is tested on Victivallis vadensis strain: ATCC BAA-548 for biotransformation. The drug concentrations were measured before and after a 12-h incubation by liquid-chromatography-coupled mass spectrometry (LC–MS)
A short description of series [10]: The drug is tested on the gut metagenome community of MV06 with ENA study accession number: PRJEB31790 and ENA sample accession number: SAMEA5537487 for biotransformation. The drug concentrations were measured over 9 timepoints collected between 0 and 24 hours of incubation by liquid-chromatography-coupled mass spectrometry (LC–MS). The class given is ADME. On the set-up: dose 2 uM, timepoint 0, 1, 2, 4, 6, 8, 12, 18, 24 hours. To be noted: 2 µM.

Series [11] can be described thus: The drug is tested on the gut metagenome community of MV21 with ENA study accession number: PRJEB31790 and ENA sample accession number: SAMEA5537502 for biotransformation. The drug concentrations were measured over 9 timepoints collected between 0 and 24 hours of incubation by liquid-chromatography-coupled mass spectrometry (LC–MS). The class given is ADME. The following applies: 2 µM. On the set-up: dose 2 uM, timepoint 0, 1, 2, 4, 6, 8, 12, 18, 24 hours.

A short description of series [12]: The drug is tested on the gut metagenome community of MV08 with ENA study accession number: PRJEB31790 and ENA sample accession number: SAMEA5537489 for biotransformation. The drug concentrations were measured over 9 timepoints collected between 0 and 24 hours of incubation by liquid-chromatography-coupled mass spectrometry (LC–MS). The class given is ADME. The following applies: 2 µM. On the set-up: dose 2 uM, timepoint 0, 1, 2, 4, 6, 8, 12, 18, 24 hours.

A short description of series [13]: The drug is tested on the gut metagenome community of MV16 with ENA study accession number: PRJEB31790 and ENA sample accession number: SAMEA5537497 for biotransformation. The drug concentrations were measured over 9 timepoints collected between 0 and 24 hours of incubation by liquid-chromatography-coupled mass spectrometry (LC–MS). The class given is ADME. On the set-up: dose 2 uM, timepoint 0, 1, 2, 4, 6, 8, 12, 18, 24 hours. To be noted: 2 µM.

Series [14] in a line: The drug is tested on the gut metagenome community of MV11 with ENA study accession number: PRJEB31790 and ENA sample accession number: SAMEA5537492 for biotransformation. The drug concentrations were measured over 9 timepoints collected between 0 and 24 hours of incubation by liquid-chromatography-coupled mass spectrometry (LC–MS). The class given is ADME. On the set-up: dose 2 uM, timepoint 0, 1, 2, 4, 6, 8, 12, 18, 24 hours. To be noted: 2 µM.

As to `C[C@@H]1C[C@H]2[C@@H]3CCC4=CC(=O)C=C[C@]4(C)[C@@]3(F)[C@@H](O)C[C@]2(C)[C@@]1(O)C(=O)CO` [DEXAMETHASONE], the “Bacterial Biotransformation” value in [1] is “Compound NOT metabolized”; in series [2], “Compound metabolized”; in [3], “Compound metabolized”; in [4] it was “Compound NOT metabolized”; in series [5], “Compound NOT metabolized”; in [6], “Compound metabolized”. The “Bacterial Biotransformation” value in [7], in series [8], in series [9], in series [10], in [11] and in series [12] was “Compound NOT metabolized” throughout. Also, the “Bacterial Biotransformation” value in series [13] and in series [14] was “Compound NOT metabolized” in each case.
